{
  "source": "paper PMC9334755",
  "about": "(Cancer Biology & Medicine, 2021)",
  "key": {"[1]": {"target": "FRK (Homo sapiens, UniProt P42685)", "sequence (P42685 whole entry)": "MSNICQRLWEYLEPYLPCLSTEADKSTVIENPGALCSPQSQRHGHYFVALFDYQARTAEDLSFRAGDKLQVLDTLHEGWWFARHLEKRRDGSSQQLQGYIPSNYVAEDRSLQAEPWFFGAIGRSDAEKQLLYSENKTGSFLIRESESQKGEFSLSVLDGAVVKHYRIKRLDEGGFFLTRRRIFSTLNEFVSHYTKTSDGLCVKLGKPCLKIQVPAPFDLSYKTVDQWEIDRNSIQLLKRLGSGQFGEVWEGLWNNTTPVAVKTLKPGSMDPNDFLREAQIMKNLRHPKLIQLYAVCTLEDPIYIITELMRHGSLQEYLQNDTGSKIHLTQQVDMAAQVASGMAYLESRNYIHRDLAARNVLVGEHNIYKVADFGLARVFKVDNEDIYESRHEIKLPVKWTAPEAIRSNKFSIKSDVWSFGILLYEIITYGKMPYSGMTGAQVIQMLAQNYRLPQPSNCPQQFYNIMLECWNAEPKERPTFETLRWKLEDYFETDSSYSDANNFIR", "assay": "Protein kinase panel at 1 µM, FRK", "assay_type": "biochemical"}, "[2]": {"target": "EPHA3 (Homo sapiens, UniProt P29320)", "sequence (P29320 21-983, species assumed)": "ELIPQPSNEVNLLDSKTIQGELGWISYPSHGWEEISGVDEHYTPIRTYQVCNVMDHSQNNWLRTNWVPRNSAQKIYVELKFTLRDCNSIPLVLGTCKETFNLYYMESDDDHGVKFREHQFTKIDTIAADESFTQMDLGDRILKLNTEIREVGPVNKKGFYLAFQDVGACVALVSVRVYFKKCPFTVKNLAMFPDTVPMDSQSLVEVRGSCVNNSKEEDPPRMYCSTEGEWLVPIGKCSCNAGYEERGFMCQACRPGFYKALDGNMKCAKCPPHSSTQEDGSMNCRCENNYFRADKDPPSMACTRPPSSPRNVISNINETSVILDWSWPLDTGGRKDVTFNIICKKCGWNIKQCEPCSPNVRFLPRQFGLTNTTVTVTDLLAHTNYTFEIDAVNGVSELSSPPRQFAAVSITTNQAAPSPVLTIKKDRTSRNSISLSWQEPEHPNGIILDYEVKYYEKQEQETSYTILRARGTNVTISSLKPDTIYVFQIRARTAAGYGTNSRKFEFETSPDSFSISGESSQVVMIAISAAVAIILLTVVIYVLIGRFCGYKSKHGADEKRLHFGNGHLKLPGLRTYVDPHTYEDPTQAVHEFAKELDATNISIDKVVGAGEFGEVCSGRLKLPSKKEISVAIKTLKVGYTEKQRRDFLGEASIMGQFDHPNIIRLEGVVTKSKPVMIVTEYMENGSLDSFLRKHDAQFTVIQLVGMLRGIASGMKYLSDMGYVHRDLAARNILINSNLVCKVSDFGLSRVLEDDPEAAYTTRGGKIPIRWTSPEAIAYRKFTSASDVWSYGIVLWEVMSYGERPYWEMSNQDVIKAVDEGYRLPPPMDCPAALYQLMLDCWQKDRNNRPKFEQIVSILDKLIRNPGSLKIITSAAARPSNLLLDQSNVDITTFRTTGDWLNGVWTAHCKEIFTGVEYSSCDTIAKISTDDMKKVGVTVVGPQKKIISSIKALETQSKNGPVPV", "assay": "Protein kinase panel at 1 µM, EPHA3", "assay_type": "biochemical"}, "[3]": {"tested_on": "T cell", "assay": "Cell viability assay (CellTiter-Blue), human T cells", "assay_type": "cell-based", "conditions": "read-out: IC50 (nM), growth of T cell", "procedure": "Cells were seeded on 96-well plates (9,000 cells/well), cultured at 37 °C in 5% CO2 overnight, and incubated with different concentrations of compounds for 3 or 7 days. Then the cells were stained with CellTiter-Blue® reagent (Promega) for 4 h at 37 °C. The fluorescence signals were detected with a FlexStation 3, and the IC50 values of each compound were determined with GraFit software (Version 6.0).\nCD19^+ B (>80% purity) and CD3^+ T (>90% purity) cells were purified with human B cell enrichment cocktail and human T cell enrichment cocktail (Stem Cell Technology), respectively. Cells were seeded on 12-well plates and incubated with different concentrations of BTK inhibitors for 1 h. B cells were stimulated with 50 µg/mL anti-human IgM F(ab′)2, and T cells were stimulated with 50 µg/mL anti-CD3/CD28 beads overnight. In the washout groups, the cell medium containing the indicated inhibitors was replaced with fresh medium before stimulation. Then cells were then incubated with anti-human CD69 for 1 h and analyzed with a Guava flow cytometer."}, "[4]": {"target": "BMX (Homo sapiens, UniProt P51813)", "sequence (P51813 whole entry)": "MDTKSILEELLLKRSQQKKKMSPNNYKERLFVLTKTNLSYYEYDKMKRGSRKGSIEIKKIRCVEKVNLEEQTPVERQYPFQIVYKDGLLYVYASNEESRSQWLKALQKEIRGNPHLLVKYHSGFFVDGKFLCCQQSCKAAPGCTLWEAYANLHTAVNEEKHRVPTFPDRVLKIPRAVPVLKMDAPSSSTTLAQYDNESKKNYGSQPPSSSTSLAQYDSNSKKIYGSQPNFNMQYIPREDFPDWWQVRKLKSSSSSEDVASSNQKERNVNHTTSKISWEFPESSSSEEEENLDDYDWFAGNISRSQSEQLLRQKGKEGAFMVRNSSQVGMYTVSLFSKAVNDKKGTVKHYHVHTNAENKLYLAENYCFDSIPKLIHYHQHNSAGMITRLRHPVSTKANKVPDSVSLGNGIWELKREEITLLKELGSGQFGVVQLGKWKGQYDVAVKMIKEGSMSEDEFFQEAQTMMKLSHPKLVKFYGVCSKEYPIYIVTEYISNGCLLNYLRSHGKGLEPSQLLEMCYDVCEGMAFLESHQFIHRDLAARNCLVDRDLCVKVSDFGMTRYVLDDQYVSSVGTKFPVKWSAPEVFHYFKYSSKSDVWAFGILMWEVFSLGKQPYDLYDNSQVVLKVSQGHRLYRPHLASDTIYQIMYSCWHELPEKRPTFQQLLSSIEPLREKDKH", "assay": "HTRF kinase assay, BMX", "protocol": "(§1) Homogeneous time-resolved fluorescence (HTRF) assays were performed with a HTRF® KinEASE™-TK kit (Trevigen)."}, "[5]": {"target": "ITK (Homo sapiens, UniProt Q08881)", "sequence (Q08881 whole entry)": "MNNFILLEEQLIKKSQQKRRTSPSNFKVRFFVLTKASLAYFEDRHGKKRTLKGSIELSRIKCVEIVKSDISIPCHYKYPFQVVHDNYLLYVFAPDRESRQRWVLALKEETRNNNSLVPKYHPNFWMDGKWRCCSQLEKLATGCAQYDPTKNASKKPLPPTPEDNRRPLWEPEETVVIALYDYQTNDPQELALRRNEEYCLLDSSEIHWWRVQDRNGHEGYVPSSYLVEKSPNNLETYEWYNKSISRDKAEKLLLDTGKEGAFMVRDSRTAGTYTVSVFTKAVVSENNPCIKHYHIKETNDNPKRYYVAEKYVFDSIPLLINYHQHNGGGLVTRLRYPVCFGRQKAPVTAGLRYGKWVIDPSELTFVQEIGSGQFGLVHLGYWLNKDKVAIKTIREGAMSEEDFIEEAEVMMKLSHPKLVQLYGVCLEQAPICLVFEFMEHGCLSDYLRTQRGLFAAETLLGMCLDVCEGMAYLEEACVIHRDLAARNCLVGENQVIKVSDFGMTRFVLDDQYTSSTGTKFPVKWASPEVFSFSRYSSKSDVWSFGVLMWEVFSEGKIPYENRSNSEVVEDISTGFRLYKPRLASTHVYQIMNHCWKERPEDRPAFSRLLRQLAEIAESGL", "assay": "HTRF assay of ITK activity", "protocol": "as §1"}},
  "data": [
    {"smiles": "COC/C=C/C(=O)N1CC[C@@H](n2nc(-c3ccc(Oc4ccccc4)cc3)c(C(N)=O)c2N)C1", "note": "[SY-1530]", "values": [
      {"measurement": "Inhibition (%), FRK", "setting": "[1]", "value": 72, "unit": "%"},
      {"measurement": "Inhibition (%), EPHA3", "setting": "[2]", "value": "−2", "unit": "%"},
      {"measurement": "IC50", "setting": "[3]", "value": "> 10000", "unit": "nM"},
      {"measurement": "Ratio, BMX", "setting": "[4]; IC50 SY-1530 over literature IC50 of ibrutinib", "value": 9.4},
      {"measurement": "IC50", "setting": "[4]; read-out: IC50 (nM), BMX, HTRF", "value": 7.51, "unit": "nM"},
      {"measurement": "Ratio, ITK", "setting": "[5]; IC50 SY-1530 over IC50 ibrutinib", "value": "> 13"},
      {"measurement": "IC50", "setting": "[5]; read-out: IC50 toward ITK, HTRF", "value": "> 1000", "unit": "nM"}
    ]}
  ]
}
